Laboratory results published in patent US20060188913A1, “Methods and products for enhancing immune responses using imidazoquinoline compounds” (University of Iowa Research Foundation, priority 2001, published 2006).

What was measured:
Type in all cases: cell-based
[1] = test system: human PBMC; experiment: IP-10 secretion by human PBMC (ELISA); details: 48 hours, ODN 0.2-3.0 μg/ml versus R-848 0.01-1.0 μg/ml, FIG. 6A
Experimental: (§1) This experiment investigated the induction of the Th1 cytokine IFN-gamma as well as the Th1-related chemokine IP-10 (IFN-gamma inducible protein). Unfractionated human PBMC from three donors were incubated for 48 hours in the presence of varying concentrations of R-848 (0.01-1.0 μg/ml), varying concentrations of CpG ODN 2006 (0.2-3.0 μg/ml), varying concentrations of negative control ODN 5177 (0.2-3.0 μg/ml), SEB (50 ng/ml), or media alone, and then the concentrations of IP-10 and IFN-gamma in the supernatant were measured by ELISA.
In FIG. 6B, the combined effects of R-848 and CpG ODN (e.g., #2006) on IP-10 secretion are shown. Human PBMCs from three different donors were incubated for 48 hours with the indicated concentrations of ODNs and R-848, either individually or together. Supernatants were harvested and IP-10 was measured by ELISA. The data represent mean cytokine amounts.

[2] = target: T1, hTLR7 (Homo sapiens, UniProt Q9NYK1); experiment: IL-8 production in 293 fibroblasts transiently expressing hTLR7; details: CpG-ODN 2 μM, LPS 100 ng/ml
T1 construct: plasmids (pcDNA3.1 constructs) coding for full length hTLR2, hTLR7, hTLR8 and hTLR9; expressed in transfected cells; host or cells: 293T cells
T1 sequence (Q9NYK1 27-1049): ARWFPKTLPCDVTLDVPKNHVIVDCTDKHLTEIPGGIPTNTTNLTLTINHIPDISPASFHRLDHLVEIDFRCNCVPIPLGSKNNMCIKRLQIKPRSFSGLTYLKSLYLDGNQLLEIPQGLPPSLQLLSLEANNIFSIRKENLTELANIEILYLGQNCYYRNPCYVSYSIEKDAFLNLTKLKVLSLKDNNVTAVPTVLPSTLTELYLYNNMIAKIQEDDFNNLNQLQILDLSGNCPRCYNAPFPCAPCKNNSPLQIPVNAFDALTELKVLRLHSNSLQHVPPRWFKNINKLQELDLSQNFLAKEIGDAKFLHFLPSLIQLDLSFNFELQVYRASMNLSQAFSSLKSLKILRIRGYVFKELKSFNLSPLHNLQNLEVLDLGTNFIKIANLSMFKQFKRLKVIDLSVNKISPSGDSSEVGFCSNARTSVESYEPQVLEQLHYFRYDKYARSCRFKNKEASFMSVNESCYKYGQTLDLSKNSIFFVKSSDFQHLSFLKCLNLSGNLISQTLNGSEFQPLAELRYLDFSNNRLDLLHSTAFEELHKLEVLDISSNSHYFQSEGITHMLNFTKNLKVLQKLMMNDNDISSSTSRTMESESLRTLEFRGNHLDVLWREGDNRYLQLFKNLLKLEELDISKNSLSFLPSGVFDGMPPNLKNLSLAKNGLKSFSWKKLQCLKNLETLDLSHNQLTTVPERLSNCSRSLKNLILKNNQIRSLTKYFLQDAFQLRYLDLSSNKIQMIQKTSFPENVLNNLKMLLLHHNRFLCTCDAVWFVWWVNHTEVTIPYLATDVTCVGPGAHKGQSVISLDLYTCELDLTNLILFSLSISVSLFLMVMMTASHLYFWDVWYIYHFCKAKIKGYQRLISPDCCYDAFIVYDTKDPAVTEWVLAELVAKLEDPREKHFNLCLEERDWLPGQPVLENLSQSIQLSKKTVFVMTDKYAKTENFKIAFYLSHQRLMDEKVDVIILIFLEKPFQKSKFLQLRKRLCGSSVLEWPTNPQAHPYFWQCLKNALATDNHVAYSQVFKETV
Experimental: (§2) The cloned human TLR7 and human TLR8 cDNA were cloned into the expression vector pCDNA3. 1 (−) from Invitrogen using the NotI site. Utilizing a “gain of function” assay, hTLR7 and hTLR8 expression vectors were transiently expressed in human 293 fibroblasts (ATCC, CRL-1573) using the calcium phosphate method. Activation was monitored by IL-8 production after stimulus with CpG-ODN (2006 or 1668, 2 μM) or LPS (100 ng/ml).

[3] = test system: human PBMC; experiment: IFN-gamma secretion by human PBMC (ELISA); details: 48 hours, compared to R-848, not shown
Experimental: as §1

[4] = target: T2, hTLR8 (Homo sapiens, UniProt Q9NR97); experiment: IL-8 production in 293 fibroblasts transiently expressing hTLR8; details: CpG-ODN 2 μM, LPS 100 ng/ml
T2 construct: plasmids (pcDNA3.1 constructs) coding for full length hTLR2, hTLR7, hTLR8 and hTLR9; expressed in transfected cells; host or cells: 293T cells
T2 sequence (Q9NR97 27-1041): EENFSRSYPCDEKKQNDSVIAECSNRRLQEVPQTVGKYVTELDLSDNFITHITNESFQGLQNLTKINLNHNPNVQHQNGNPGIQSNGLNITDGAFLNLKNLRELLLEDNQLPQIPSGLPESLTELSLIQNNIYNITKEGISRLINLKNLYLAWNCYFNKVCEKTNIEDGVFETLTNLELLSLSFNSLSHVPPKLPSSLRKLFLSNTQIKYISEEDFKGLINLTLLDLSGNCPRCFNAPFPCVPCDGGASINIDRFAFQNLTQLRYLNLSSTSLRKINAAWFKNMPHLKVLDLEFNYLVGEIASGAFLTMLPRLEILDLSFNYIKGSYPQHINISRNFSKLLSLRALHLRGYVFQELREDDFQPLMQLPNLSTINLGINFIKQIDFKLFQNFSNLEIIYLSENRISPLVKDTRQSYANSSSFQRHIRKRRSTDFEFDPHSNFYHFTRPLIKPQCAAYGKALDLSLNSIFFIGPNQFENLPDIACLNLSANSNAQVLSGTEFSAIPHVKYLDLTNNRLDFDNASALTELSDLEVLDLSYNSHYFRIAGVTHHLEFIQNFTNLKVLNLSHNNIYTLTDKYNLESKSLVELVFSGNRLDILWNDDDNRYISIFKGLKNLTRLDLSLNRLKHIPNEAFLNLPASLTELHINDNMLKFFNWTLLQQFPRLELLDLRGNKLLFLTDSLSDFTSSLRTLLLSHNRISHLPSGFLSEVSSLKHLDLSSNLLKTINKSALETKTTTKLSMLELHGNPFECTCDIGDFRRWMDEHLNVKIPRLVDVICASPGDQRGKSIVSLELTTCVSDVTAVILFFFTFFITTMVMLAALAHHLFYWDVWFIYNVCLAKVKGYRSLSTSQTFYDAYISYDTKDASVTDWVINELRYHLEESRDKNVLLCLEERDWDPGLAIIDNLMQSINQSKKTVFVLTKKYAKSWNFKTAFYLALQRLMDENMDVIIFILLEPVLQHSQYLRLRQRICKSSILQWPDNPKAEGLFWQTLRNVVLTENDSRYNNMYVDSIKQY
Experimental: as §2

activation monitored by IL-8 production [2]: None of the stimuli used activated
activation monitored by IL-8 production [4]: None of the stimuli used activated
Substance: CpG ODN 2006
IP-10 induction [1]: induced similar amounts of IP-10 compared to R-848
IFN-gamma induction [3]: The same result was obtained
